# In US20260242394A1, “USP2 INHIBITORS AND METHODS OF USING THE SAME FOR THE TREATMENT OF DISEASES” (ICAHN SCHOOL OF MEDICINE AT MOUNT SINAI, priority 2023, published 2026):
# Tested on: ACE2-dependent pseudotypes
# Assay type: cell-based
smiles,measurement,value
"Cc1ccc(S(=O)(=O)Nc2ccc(C(F)(F)F)cc2C(=O)Nc2nc(-c3ccc(Br)cc3)cs2)cc1 [XH161-102 (MS102), N-(4-(4-bromophenyl)thiazol-2-yl)-2-((4-methylphenyl)sulfonamido)-5-(trifluoromethyl)benzamide]",activity in preventing cell entry of ACE2-dependent pseudotypes,enhanced activity
